Laboratory results reported in patent US7833979B2, “Toxin peptide therapeutic agents” (Amgen Inc., priority 2005, dated 2010).
“Also recorded” adds a separate entry of the source. Where no end group is shown, it is not given here.

Legend:
Format in all cases: cell-based
Kv1.3 = Kv1.3 (Homo sapiens, UniProt P22001); assay: Whole cell patch clamp electrophysiology on HEK293 cells stably expressing human Kv1.3; conditions: for Blockade of human Kv1.3 current (in words): patch clamp electrophysiology
Kv1.3, sequence (P22001 whole entry): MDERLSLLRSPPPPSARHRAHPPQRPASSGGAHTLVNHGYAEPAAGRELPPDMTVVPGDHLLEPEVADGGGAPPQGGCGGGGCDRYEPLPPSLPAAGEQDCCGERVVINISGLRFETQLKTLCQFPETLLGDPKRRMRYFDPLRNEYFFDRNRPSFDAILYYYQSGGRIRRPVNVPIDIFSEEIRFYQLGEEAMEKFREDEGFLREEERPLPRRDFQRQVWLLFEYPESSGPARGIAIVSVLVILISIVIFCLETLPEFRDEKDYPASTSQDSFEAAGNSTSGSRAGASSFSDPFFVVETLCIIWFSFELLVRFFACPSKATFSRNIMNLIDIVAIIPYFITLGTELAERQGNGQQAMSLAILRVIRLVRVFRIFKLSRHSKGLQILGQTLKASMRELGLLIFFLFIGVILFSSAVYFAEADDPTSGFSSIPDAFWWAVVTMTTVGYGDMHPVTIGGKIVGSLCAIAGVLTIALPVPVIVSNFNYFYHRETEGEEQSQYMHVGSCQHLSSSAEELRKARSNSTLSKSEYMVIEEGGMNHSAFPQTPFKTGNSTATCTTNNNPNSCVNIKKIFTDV

[1] = tested on: thapsigargin-induced IL-2 and IFN-g production in human whole blood; assay: Ex vivo human whole blood assay, thapsigargin-induced secretion of IL-2 and IFN-g; conditions: for Thapsigargin-induced IFN-g production in human whole blood / Thapsigargin-induced IL-2 production in human whole blood: two donors, 48 hours
[2] = tested on: upregulation of CD40L and IL-2R on CD4+ T cells in human whole blood; assay: Ex vivo human whole blood assay, thapsigargin-induced cell surface CD40L and IL-2R on T cells (FACS); conditions: 24 hours

| Substance | selectivity ratio hKv1.1/hKv1.3 (Kv1.3; ratio of hKv1.1 IC50 to hKv1.3 IC50) | Potency in blocking IL-2 production relative to cyclosporine A (by IC50) ([1]; human whole blood) | Thapsigargin-induced IFN-g production in human whole blood [1] | Thapsigargin-induced IL-2 production in human whole blood [1] | Thapsigargin-induced upregulation of CD40L on T cells in human whole blood [2] | Thapsigargin-induced upregulation of the IL-2R on T cells in human whole blood [2] | Blockade of human Kv1.3 current (in words) (Kv1.3) |
| --- | --- | --- | --- | --- | --- | --- | --- |
| Fc-L10-OSK1[E16K,K20D]: OSK1-peptibody with E16K and K20D substitutions; SEQ ID NO: 1045 | 403 |  |  |  |  |  |  |
| Fc-L10-ShK[2-35]: human IgG1 Fc fused via 10 amino acid linker to ShK[2-35]; SEQ ID NO: 81 |  | more than 200 times | suppressed; also recorded: blocked | suppressed; also recorded: potently blocked IL-2 secretion | blocked | blocked; also recorded: suppressing activation of the IL-2R | potently blocks human Kv1.3 current |
| Fc-L-KTX1: peptibody: Fc fused via linker to Kaliotoxin1 (KTX1, SEQ ID NO: 24) |  |  |  |  |  |  | blocked the human Kv1.3 current in a dose-dependent fashion |
| PEG-ShK[2-35]: folded Des-Arg1-ShK N-terminally mono-PEGylated with 20 kDa MeO-PEG-aldehyde by reductive amination ({mPEG 20 kDa}-SCIDTIPKSRCTAFQCKHSMKYRLSFCRKTCGTC; disulfide (positions not given here); ends not checked; also: folded (disulfides not given here)) |  |  |  |  |  |  | active in blocking human Kv1.3 |
| dendrotoxin-K |  |  |  |  | no significant activity | no significant activity |  |
| iberiotoxin (QFTDVDCSVSKECWSVCKDLFGVDRGKCMGKKCRCYQ; BKCa peptide inhibitor sequence - IbTx) [reference compound] |  |  | no significant activity | no significant activity | no significant activity | no significant activity |  |
